Assay results: patent publication US10738056B2 (Aduro BioTech, Inc., priority 2017, dated 2020)

Target: Human cGAS amino acids 155-522 (Homo sapiens (Human), UniProt Q8N884)
Assay: cGAS biochemical activity assay (ATP remaining, Kinase-Glo Max luminescence)
Details: human cGAS 155-522, ATP remaining (Kinase-Glo Max); read-out: cGAS IC50

Sequence of Human cGAS amino acids 155-522 (Q8N884 157-522): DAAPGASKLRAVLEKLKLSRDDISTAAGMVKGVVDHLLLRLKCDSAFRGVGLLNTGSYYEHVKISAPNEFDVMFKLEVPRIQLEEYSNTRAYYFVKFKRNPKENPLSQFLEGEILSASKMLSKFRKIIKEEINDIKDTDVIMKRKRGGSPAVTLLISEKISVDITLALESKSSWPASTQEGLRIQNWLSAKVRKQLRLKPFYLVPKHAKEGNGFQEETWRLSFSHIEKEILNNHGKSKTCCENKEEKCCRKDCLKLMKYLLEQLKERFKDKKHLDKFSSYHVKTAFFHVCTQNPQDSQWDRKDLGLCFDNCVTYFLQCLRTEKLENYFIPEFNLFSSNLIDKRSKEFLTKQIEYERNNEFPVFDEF

Row | Structure (SMILES) | IC50 [µM]
1 | COCc1nc(-c2c(C)[nH]c3c(-c4ccccc4)c(C(F)(F)F)nn3c2=O)oc1C1CCCCC1 [Compound C1158, 6-(5-cyclohexyl-4-(methoxymethyl)oxazol-2-yl)-5-methyl-3-phenyl-2-(trifluoromethyl)pyrazolo[1,5-a]pyrimidin-7(4H)-one] | > 250
2 | Cc1[nH]c2c(-c3ccccc3)c(C(F)(F)F)nn2c(=O)c1CC(=O)N1CCOCC1 [Compound B1002, 5-methyl-6-(2-morpholino-2-oxoethyl)-3-phenyl-2-(trifluoromethyl)pyrazolo[1,5-a]pyrimidin-7(4H)-one] | > 250
3 | COc1cccc(NC(=O)c2c(C)[nH]c3c(-c4ccccc4)c(C(F)(F)F)nn3c2=O)c1OC [Compound A1043, N-(2,3-dimethoxyphenyl)-5-methyl-7-oxo-3-phenyl-2-(trifluoromethyl)-4,7-dihydropyrazolo[1,5-a]pyrimidine-6-carboxamide] | 20 to 250
4 | Cc1noc(C)c1NC(=O)c1c(C)[nH]c2c(-c3ccccc3)c(C(F)(F)F)nn2c1=O [Compound A1019, N-(3,5-dimethylisoxazol-4-yl)-5-methyl-7-oxo-3-phenyl-2-(trifluoromethyl)-4,7-dihydropyrazolo[1,5-a]pyrimidine-6-carboxamide] | > 250
5 | Cc1[nH]c2c(-c3ccccc3)c(C(F)(F)F)nn2c(=O)c1-c1nnc(N2CCCCC2CCN)o1 (stereo not shown) [Compound D1069, 6-(5-(2-(2-aminoethyl)piperidin-1-yl)-1,3,4-oxadiazol-2-yl)-5-methyl-3-phenyl-2-(trifluoromethyl)pyrazolo[1,5-a]pyrimidin-7(4H)-one] | 20 to 250
6 | Cc1[nH]c2c(-c3ccccc3)c(C(F)(F)F)nn2c(=O)c1C(=O)N1CCN(c2ccccc2)CC1 [Compound A1003, 5-methyl-3-phenyl-6-(4-phenylpiperazine-1-carbonyl)-2-(trifluoromethyl)pyrazolo[1,5-a]pyrimidin-7(4H)-one] | > 250
7 | COc1cncc(NC(=O)c2c(C)[nH]c3c(-c4ccccc4)c(C(F)(F)F)nn3c2=O)n1 [Compound A1098, N-(6-methoxypyrazin-2-yl)-5-methyl-7-oxo-3-phenyl-2-(trifluoromethyl)-4,7-dihydropyrazolo[1,5-a]pyrimidine-6-carboxamide] | 20 to 250
8 | COc1c(Br)cccc1NC(=O)c1c(C)[nH]c2c(-c3ccccc3)c(C(F)(F)F)nn2c1=O [Compound A1130, N-(3-bromo-2-methoxyphenyl)-5-methyl-7-oxo-3-phenyl-2-(trifluoromethyl)-4,7-dihydropyrazolo[1,5-a]pyrimidine-6-carboxamide] | 20 to 250
9 | Cc1[nH]c2c(-c3ccccc3)c(C(F)(F)F)nn2c(=O)c1C(=O)Nc1ccc(C(F)(F)F)cc1 [Compound A1007, 5-methyl-7-oxo-3-phenyl-2-(trifluoromethyl)-N-(4-(trifluoromethyl)phenyl)-4,7-dihydropyrazolo[1,5-a]pyrimidine-6-carboxamide] | 20 to 250
10 | Cc1[nH]c2c(-c3ccccc3)c(C(F)(F)F)nn2c(=O)c1-c1nnc(C(=N)N)o1 [Compound D1074, 5-(5-methyl-7-oxo-3-phenyl-2-(trifluoromethyl)-4,7-dihydropyrazolo[1,5-a]pyrimidin-6-yl)-1,3,4-oxadiazole-2-carboximidamide] | < 20
11 | Cc1[nH]c2c(-c3ccccc3)c(C(F)(F)F)nn2c(=O)c1C(=O)Nc1cccc(OC(F)(F)F)c1 [Compound A1050, 5-methyl-7-oxo-3-phenyl-N-(3-(trifluoromethoxy)phenyl)-2-(trifluoromethyl)-4,7-dihydropyrazolo[1,5-a]pyrimidine-6-carboxamide] | 20 to 250

Results, then the molecule that gave them:

Row | IC50 [µM] | Structure (SMILES)
12 | < 20 | COc1cccc2oc(-c3c(C(=O)N[C@@H](C)CO)[nH]c4c(-c5ccccc5)c(C(F)(F)F)nn4c3=O)nc12 [Compound C1196, (S)-N-(1-hydroxypropan-2-yl)-6-(4-methoxybenzo[d]oxazol-2-yl)-7-oxo-3-phenyl-2-(trifluoromethyl)-4,7-dihydropyrazolo[1,5-a]pyrimidine-5-carboxamide]
13 | > 250 | CN(Cc1ccccc1)C(=O)c1c[nH]c2c(-c3ccccc3)c(C(F)(F)F)nn2c1=O [Compound A1013, N-benzyl-N-methyl-7-oxo-3-phenyl-2-(trifluoromethyl)-4,7-dihydropyrazolo[1,5-a]pyrimidine-6-carboxamide]
14 | > 250 | Cc1[nH]c2c(C3CCCC3)c(C(F)(F)F)nn2c(=O)c1-c1nnc(C2CCCCC2)o1 [Compound D1017, 6-(5-cyclohexyl-1,3,4-oxadiazol-2-yl)-3-cyclopentyl-5-methyl-2-(trifluoromethyl)pyrazolo[1,5-a]pyrimidin-7(4H)-one]
15 | > 250 | COc1ccc(-c2nnc(-c3c(C)[nH]c4c(-c5ccccc5)c(C(F)(F)F)nn4c3=O)o2)cc1 [Compound D1002, 6-(5-(4-methoxyphenyl)-1,3,4-oxadiazol-2-yl)-5-methyl-3-phenyl-2-(trifluoromethyl)pyrazolo[1,5-a]pyrimidin-7(4H)-one]
16 | 20 to 250 | COc1cccc2oc(-c3c(C(=O)N4CCCCC4)[nH]c4c(-c5ccccc5)c(C(F)(F)F)nn4c3=O)nc12 [Compound C1186, 6-(4-methoxybenzo[d]oxazol-2-yl)-3-phenyl-5-(piperidine-1-carbonyl)-2-(trifluoromethyl)pyrazolo[1,5-a]pyrimidin-7(4H)-one]
17 | 20 to 250 | Cc1[nH]c2c(-c3ccccc3)c(C(F)(F)F)nn2c(=O)c1-c1nnc(N2CCCC(O)C2)o1 (stereo not shown) [Compound D1087, 6-(5-(3-hydroxypiperidin-1-yl)-1,3,4-oxadiazol-2-yl)-5-methyl-3-phenyl-2-(trifluoromethyl)pyrazolo[1,5-a]pyrimidin-7(4H)-one]
18 | 20 to 250 | Cc1[nH]c2c(-c3ccccc3)c(C(F)(F)F)nn2c(=O)c1C1OC(=O)c2ccccc21 (stereo not shown) [Compound C1168, 5-methyl-6-(3-oxo-1,3-dihydroisobenzofuran-1-yl)-3-phenyl-2-(trifluoromethyl)pyrazolo[1,5-a]pyrimidin-7(4H)-one]
19 | 20 to 250 | Cc1[nH]c2c(-c3ccccc3)c(C(F)(F)F)nn2c(=O)c1N1Cc2ccccc2C1=O [Compound C1214, 5-methyl-6-(1-oxoisoindolin-2-yl)-3-phenyl-2-(trifluoromethyl)pyrazolo[1,5-a]pyrimidin-7(4H)-one]
20 | > 250 | Cc1cccc(-c2c(C(F)(F)F)nn3c(=O)c(-c4nc5c(o4)CCCC5)c(C)[nH]c23)c1 [Compound C1034, 5-methyl-6-(4,5,6,7-tetrahydrobenzo[d]oxazol-2-yl)-3-(m-tolyl)-2-(trifluoromethyl)pyrazolo[1,5-a]pyrimidin-7(4H)-one]
21 | < 20 | Cc1[nH]c2c(-c3ccccc3)c(C(F)(F)F)nn2c(=O)c1C(=O)Nc1cccc(Cl)c1 [Compound A1030, N-(3-chlorophenyl)-5-methyl-7-oxo-3-phenyl-2-(trifluoromethyl)-4,7-dihydropyrazolo[1,5-a]pyrimidine-6-carboxamide]
22 | 20 to 250 | Cc1[nH]c2c(-c3ccccc3)c(C(F)(F)F)nn2c(=O)c1CC(=O)Nc1ccncc1 [Compound B1004, 2-(5-methyl-7-oxo-3-phenyl-2-(trifluoromethyl)-4,7-dihydropyrazolo[1,5-a]pyrimidin-6-yl)-N-(pyridin-4-yl)acetamide]
